Data reported in patent publication US20260258032A1, “TYROSINE KINASE 2 INHIBITORS AND USES THEREOF” (BIOGEN MA INC., priority 2022, published 2026).
Where a name gives a salt, the structure may show the parent alone.

What was measured:
[1] = system: Tyk2 kinase activity on STAT4; test: pSTAT4 cell assay (MSD, NK92 cells); assay type: cell-based; conditions: compounds 1 hr
How it was run: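 IC50 values come from 4-parameter logistic fits of normalized percent activity. Phospho-STAT was read by MSD (anti-STAT4 antibodies) in NK92 lysates after a 15 min stimulation with 30 ng/mL IL2. The serum-starved cells had been given compound for 1 h (10 points, four-fold, top 10 μM).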

[2] = system: JAK1 kinase activity on STAT3; test: pSTAT3 cell assay (MSD, TF1 cells, IL-6 stimulated); assay type: cell-based; conditions: Homo sapiens, TF-1, compounds 1 hour, 30 ng/mL IL-6 for 15 minutes
Method: The inhibitory potency of compounds of the disclosure against the JAK1 kinase activity on STAT3 was evaluated using an MSD-platform plate-based assay format. TF1 cells natively expressing STAT3 and JAK1 were serum-starved to reduce background phosphorylation levels, then cells were treated with compounds of the disclosure for 1 hour with a 10-point four-fold dilution series starting at 10 μM. Cells were then stimulated with 30 ng/mL interleukin 6 (IL-6) for 15 minutes. Cells were lysed and pSTAT3 levels were quantitated using an MSD plate-based assay with anti-STAT3 antibodies. The data were normalized and the percent activity versus log concentration of compound was fitted with a 4-parameter logistic model to generate IC50 curves.

JH2 domain of human Tyk2 = target: T1, JH2 domain of human Tyk2 (Homo sapiens, UniProt P29597); test: JH2 biochemical assay (TR-FRET probe displacement); assay type: binding
T1 construct: 10×His-tagged TYK2 JH2 domain (amino acid 575-876)
How it was run: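 A probe-displacement TR-FRET readout: compounds, tested in 3-fold, 10-point dilutions starting at […], compete with 2 nM tracer for 2 nM His-tagged JH2 (residues 575-876) detected by 0.1 nM Tb-anti-His over 60 min. IC50 comes from 4-parameter fits of normalized 520/495 nm ratios.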

[3] = system: JAK2 kinase activity on STAT5; test: pSTAT5 cell assay (MSD, TF1 cells, IL-3 stimulated); assay type: cell-based; conditions: Homo sapiens, TF-1, compounds 1 hour, 30 ng/mL IL-3 for 15 minutes
Method: Compounds of the disclosure were assessed for their ability to inhibit the JAK2 kinase activity on STAT5 utilizing an MSD-platform plate-based assay format. TF1 cells natively expressing STAT5 and JAK2 were serum-starved to reduce background phosphorylation levels, then cells were treated with compounds of disclosure for 1 hour with a 10-point four-fold dilution series starting at 10 μM. Cells were then stimulated with 30 ng/mL IL-3 for 15 minutes. Cells were then lysed and pSTAT5 levels were quantitated using an MSD plate-based assay with anti-STAT5 antibodies. The data were normalized and the percent activity versus log concentration of compound was fitted with a 4-parameter logistic model to generate a curve and an IC50 value.

T1 sequence (P29597 575-876): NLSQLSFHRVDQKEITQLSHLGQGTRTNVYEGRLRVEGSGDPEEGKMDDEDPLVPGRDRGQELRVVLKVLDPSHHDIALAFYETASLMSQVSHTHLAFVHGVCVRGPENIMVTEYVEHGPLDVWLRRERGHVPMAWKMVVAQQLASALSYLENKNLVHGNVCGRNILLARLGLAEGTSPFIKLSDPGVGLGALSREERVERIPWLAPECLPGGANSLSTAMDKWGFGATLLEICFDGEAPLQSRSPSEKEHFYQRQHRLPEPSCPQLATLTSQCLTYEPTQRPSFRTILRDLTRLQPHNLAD

## COC1(c2cccc(N3CC4(CC4)c4cnc(NC(C)=O)cc43)n2)CCOC1 (stereo not drawn) [Example 18, N-(1′-(6-(3-methoxytetrahydrofuran-3-yl)pyridin-2-y1)-1′,2′-dihydrospiro[cyclopropane-1,3′-pyrrolo[3,2-c]pyridin]-6′-yl)acetamide]
[1]; stimulated 15 minutes
  IC50: 10 to 100 nM
[2]
  IC50: ≥ 1000 nM
JH2 domain of human Tyk2; JH2 biochemical assay
  IC50: ≤ 10 nM
[3]
  IC50: ≥ 1000 nM

## CC(=O)Nc1cc2c(cn1)C1(CC1)CN2c1ccnc(C(C)(F)F)n1 [Example 13, N-(1′-(2-(1,1-difluoroethyl)pyrimidin-4-yl)-1′,2′-dihydrospiro[cyclopropane-1,3′-pyrrolo[3,2-c]pyridin]-6′-yl)acetamide]
[1]; stimulated 15 minutes
  IC50: 100 to 1000 nM
[2]
  IC50: ≥ 1000 nM
JH2 domain of human Tyk2; JH2 biochemical assay
  IC50: 10 to 100 nM
[3]
  IC50: ≥ 1000 nM

## CC(=O)Nc1cc2c(cn1)C1(CC1)CN2c1cc(C2CC2)nc(C(C)(F)F)n1 [Example 21, N-(1′-(6-cyclopropyl-2-(1,1-difluoroethyl)pyrimidin-4-yl)-1′,2′-dihydrospiro[cyclopropane-1,3′-pyrrolo[3,2-c]pyridin]-6′-yl)acetamide]
[1]; stimulated 15 minutes
  IC50: 10 to 100 nM
[2]
  IC50: ≥ 1000 nM
JH2 domain of human Tyk2; JH2 biochemical assay
  IC50: ≤ 10 nM
[3]
  IC50: ≥ 1000 nM

## COc1cc(N2CC3(CC3)c3cnc(NC(C)=O)cc32)nc(C(C)(F)F)c1 [Example 9, N-(1′-(6-(1,1-difluoroethyl)-4-methoxypyridin-2-yl)-1′,2′-dihydrospiro[cyclopropane-1,3′-pyrrolo[3,2-c]pyridin]-6′-yl)acetamide]
[1]; stimulated 15 minutes
  IC50: 10 to 100 nM
[2]
  IC50: ≥ 1000 nM
JH2 domain of human Tyk2; JH2 biochemical assay
  IC50: ≤ 10 nM
[3]
  IC50: ≥ 1000 nM

## COc1cc(N2CC3(CC3)c3cnc(NC(C)=O)cc32)nc(C(C)(F)F)n1 [Example 1, N-(1′-(2-(1,1-difluoroethyl)-6-methoxypyrimidin-4-yl)-1′,2′-dihydrospiro[cyclopropane-1,3′-pyrrolo[3,2-c]pyridin]-6′-yl)acetamide]
[1]; stimulated 15 minutes
  IC50: 100 to 1000 nM
[2]
  IC50: ≥ 1000 nM
JH2 domain of human Tyk2; JH2 biochemical assay
  IC50: ≤ 10 nM
[3]
  IC50: ≥ 1000 nM

## CC(=O)Nc1cc2c(cn1)C1(CC1)CN2c1cc(-c2cnn(C(C)C)c2)nc(C(C)(F)F)n1 [Example 386, N-(1′-(2-(1,1-difluoroethyl)-6-(1-isopropyl-1H-pyrazol-4-yl)pyrimidin-4-yl)-1′,2′-dihydrospiro[cyclopropane-1,3′-pyrrolo[3,2-c]pyridin]-6′-yl)acetamide trifluoroacetate]
[1]; then stimulated 15 minutes
  IC50: ≤ 10 nM
[2]
  IC50: ≥ 1000 nM
JH2 domain of human Tyk2; TR-FRET probe displacement, JH2 domain of human Tyk2
  IC50: ≤ 10 nM
[3]
  IC50: ≥ 1000 nM

## COCCNc1cc(N2CC3(CC3)c3cnc(NC(C)=O)cc32)nc(C(C)(F)F)n1 [Example 49, N-(1′-(2-(1,1-difluoroethyl)-6-((2-methoxyethyl)amino)pyrimidin-4-yl)-1′,2′-dihydrospiro[cyclopropane-1,3'-pyrrolo[3,2-c]pyridin]-6'-yl)acetamide]
[1]; stimulated 15 minutes
  IC50: 10 to 100 nM
[2]
  IC50: ≥ 1000 nM
JH2 domain of human Tyk2; JH2 biochemical assay
  IC50: ≤ 10 nM
[3]
  IC50: ≥ 1000 nM

## CC(=O)Nc1cc2c(cn1)C1(CC1)CN2c1cccc(C2(O)CCOC2)n1 (stereo not drawn) [Example 19, N-(1′-(6-(3-hydroxytetrahydrofuran-3-yl)pyridin-2-yl)-1′,2′-dihydrospiro[cyclopropane-1,3′-pyrrolo[3,2-c]pyridin]-6′-yl)acetamide]
[1]; stimulated 15 minutes
  IC50: 10 to 100 nM
[2]
  IC50: ≥ 1000 nM
JH2 domain of human Tyk2; JH2 biochemical assay
  IC50: ≤ 10 nM
[3]
  IC50: ≥ 1000 nM

## CCc1cc(N2CC3(CC3)c3cnc(NC(C)=O)cc32)nc(C(C)(F)F)n1 [Example 11, N-(1′-(2-(1,1-difluoroethyl)-6-ethylpyrimidin-4-yl)-1′,2′-dihydrospiro[cyclopropane-1,3′-pyrrolo[3,2-c]pyridin]-6′-yl)acetamide]
[1]; stimulated 15 minutes
  IC50: 10 to 100 nM
[2]
  IC50: ≥ 1000 nM
JH2 domain of human Tyk2; JH2 biochemical assay
  IC50: ≤ 10 nM
[3]
  IC50: ≥ 1000 nM

## CC(=O)Nc1cc2c(cn1)C1(CCN(C)CC1)CN2c1cccc(C(C)(F)F)n1 [Example 276, N-(1′-(6-(1,1-difluoroethyl)pyridin-2-yl)-1-methyl-1′,2′-dihydrospiro[piperidine-4,3′-pyrrolo[3,2-c]pyridin]-6′-yl)acetamide trifluoroacetate]
[2]
  IC50: ≥ 1000 nM
JH2 domain of human Tyk2; JH2 biochemical assay
  IC50: ≥ 1000 nM
[3]
  IC50: ≥ 1000 nM
